Experimental findings from patent publication US11634425B2, “Pharmaceutical compounds” (priority 2019, dated 2023) are described below.

The test system of one data set is RSV A2. Nature of the data set: RSV plaque reduction assay. The data set is classed as cell-based, respiratory syncytial virus (RSV). To be noted: mean of at least two experiments. Summed up:
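EC50 is the 50% reduction in immunostained plaque count versus virus-control wells, interpolated from variable-slope 4-parameter fits and averaged over at least two runs. Hep-G2 cells were infected with 100 PFU/well RSV A2 premixed with compound, with the inoculum removed after 2 h. Incubation continued at 37 °C for 2 days under a CMC overlay with compound.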
A general note: Plaque reduction counts the foci of infection that form in a cell layer.

For another data set, the system named is Hep-G2 cells. The data set is described as follows: Cell cytotoxicity (CC50). The class given is cell-based. Conditions: mean of at least two experiments. In a few lines: (§1)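 Values are means of ≥2 independent runs, rounded to whole units, from 4-parameter variable-slope curve fits. Toxicity measured in Hep-G2 cells run alongside RSV plaque-reduction assays.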

Another data set in a line: Cell cytotoxicity (CC50). The data set is classed as cell-based. Conditions: human; mean of at least two experiments. Summed up:
as §1

Data set [1] in a line: in vitro. The class given is in vitro ADME. Conditions: microsomes, pH 7.4, 1 μM compound, 0.5 mg/mL protein, read-out: Liver Microsomal Stability t1/2. In a few lines: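 Pooled liver microsomes (0.5 mg/mL protein) in 0.1 M phosphate pH 7.4 with 1 μM compound and 1 mM NADPH at 37° C., sampled at 0–45 min; minus-NADPH control at 45 min. Acetonitrile quench, LC-MS/MS; t1/2 and CLint from ln peak-area ratio vs time slope.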
Background: Liver microsomes are vesicles of endoplasmic reticulum, rich in cytochrome P450 enzymes.

Data set [2] can be described thus: in vitro. The data set is classed as in vitro ADME. To be noted: hepatocytes, 3 μM compound, read-out: Liver Hepatocyte Stability t1/2. The method, then: Compounds were subjected to the following assays to investigate liver microsomal stability and hepatocyte stability.
Hepatocyte Incubation: Experimental Procedure
Cryopreserved pooled hepatocytes were purchased from a reputable commercial supplier and stored in liquid nitrogen prior to use. Williams E media supplemented with 2 mM L-glutamine and 25 mM HEPES and test compound (final substrate concentration 3 μM; final DMSO concentration 0.25%) are pre-incubated at 37° C. prior to the addition of a suspension of cryopreserved hepatocytes (final cell density 0.5×10^6 viable cells/mL in Williams E media supplemented with 2 mM L-glutamine and 25 mM HEPES) to initiate the reaction. The final incubation volume is 500 μL. Two control compounds were included with each species, alongside appropriate vehicle control. The reactions are stopped by transferring 50 μL of incubate to 100 μL acetonitrile containing internal standard at the appropriate time points. Samples were removed at 6 time points (0, 5, 15, 30, 45 and 60 min) over the course of a 60 min experiment. The termination plates are centrifuged at 2500 rpm at 4° C. for 30 min to precipitate the protein. Following protein precipitation, the sample supernatants were combined in cassettes of up to 4 compounds and analysed using generic LC-MS/MS conditions. From a plot of ln peak area ratio (compound peak area/internal standard peak area) against time, the gradient of the line is determined. Subsequently, half-life (t1/2) and intrinsic clearance (CLint) were calculated.

The next data set in a line: in vivo. The data set is classed as in vivo, rat (Sprague Dawley). Conditions: male SD rat; for Vd / clearance / Cmax / half-life / AUC(0-t): Sprague Dawley, in vivo; for Cmax / C 8 h: IV 1 mg/kg / PO 10 mg/kg study; for AUC(0-t): read-out: PO AUClast. The method, then:
The pharmacokinetics of compounds were studied in vivo in rats at doses of 1 mg/kg (IV) and 10 mg/kg (PO).
Male rats [Sprague Dawley (SD)] surgically prepared with a jugular vein cannula were treated with experimental compounds via intravenous administration (IV; n=3; 1 mg/kg) or oral administration (PO; n=3; 10 mg/kg). Compounds were formulated as a solution in 40:60 dimethylacetamide:saline (IV administration) and a solution of 10% DMSO, 20% cremaphor in water (70%) (PO administration). […] Serial blood samples were collected via the cannula at 0.02, 0.08, 0.25, 0.5, 1, 2, 4, 6, 8 and 24 h post IV dosing of compound, and at 0.08, 0.25, 0.5, 1, 2, 4, 6, 8 and 24 h post oral dosing of compound, and plasma was prepared by centrifugation and stored immediately at −80° C. Samples were subsequently thawed, prepared for analysis by protein precipitation with acetonitrile, and analysed by tandem LCMS using electrospray ionisation using a matrix-matched calibration curve. PK parameters were calculated from the resulting data.

The mark [3] stands for this setting: human respiratory syncytial virus, HepG2, Hep-G2 cells.
Setting [4] is: IV 1 mg/kg, read-out: IV t1/2 (converted).
The mark [5] stands for this setting: PO 10 mg/kg, read-out: PO t1/2 (converted).

Read-outs that look alike come from different tables or passages of the source.

The term EC50 denotes the concentration that produces a half-maximal response. The low end stands for an effect from little substance, the high end for a need for much substance. In general, CC50 refers to the concentration at which the toxic effect on the cells reaches its halfway point. A lower CC50 goes with greater toxicity to the cells. For the molecule “2-[2-Methyl-6-(propan-2-ylamino)pyridin-3-yl]-N-[(3S)-2-oxo-5-phenyl-1,3-dihydro-1,4-benzodiazepin-3-yl]pyrazolo[1,5-a]pyrimidine-3-carboxamide [Example 60]”, in the data set on RSV A2 (Hep-G2 cells), a half-maximal effect (EC50) was put at 41 nM. The CC50 in the data set with Hep-G2 cells is over 25000 nM.

In turn, `O=C(N[C@H]1N=C(c2ccccc2)c2cccc(F)c2NC1=O)c1c(-c2ccccc2F)nn2cccnc12` [Example 3, N-[(3S)-9-fluoro-2-oxo-5-phenyl-1,3-dihydro-1,4-benzodiazepin-3-yl]-2-(2-fluorophenyl)pyrazolo[1,5-a]pyrimidine-3-carboxamide] registered an EC50 in the data set with RSV A2 (setting [3]) of 90 nM. The half-maximal cytotoxic concentration (CC50) in “Cell cytotoxicity (CC50)” was over 25000 nM. The half-life at 1 μM in “in vitro [1]” (dog) is over 2.33 h; in the data set “in vitro [1]” (human), 5.5 h; in the data set “in vitro [1]” (rat), over 2.33 h. Besides, the half-life at 3 μM in “in vitro [2]” (dog) was over 3.1 h; in the data set “in vitro [2]” (human), 4.28 h; in the data set “in vitro [2]” (rat) it was 1.36 h.

For `CN1CCc2ccc(-c3nn4cccnc4c3C(=O)N[C@H]3N=C(c4ccccc4)c4ccccc4NC3=O)cc21` [Example 11, 2-(1-Methyl-2,3-dihydroindol-6-yl)-N-[(3S)-2-oxo-5-phenyl-1,3-dihydro-1,4-benzodiazepin-3-yl]pyrazolo[1,5-a]pyrimidine-3-carboxamide], the response in the data set with RSV A2 (Hep-G2 cells) was half-maximal at 89 nM (EC50). Also, the CC50 in the data set with Hep-G2 cells is over 25000 nM.

For the molecule `O=C(N[C@H]1N=C(c2ccccc2)c2cccc(F)c2NC1=O)c1c(-c2ccccc2F)nc2cccnn12` [Example 18, N-[(3S)-9-fluoro-2-oxo-5-phenyl-1,3-dihydro-1,4-benzodiazepin-3-yl]-2-(2-fluorophenyl)imidazo[1,2-b]pyridazine-3-carboxamide], in the data set with RSV A2 (setting [3]), a half-maximal effect (EC50) was put at 28 nM. The molecule also registered a CC50 in the data set “Cell cytotoxicity (CC50)” of over 25000 nM. The half-life at 1 μM in the data set “in vitro [1]” (dog) amounted to 6.9 h; in the data set “in vitro [1]” (human) it was 12.3 h; in “in vitro [1]” (rat), 0.838 h. The half-life at 3 μM worked out at 2.12 h in “in vitro [2]” (dog), 11.6 h in “in vitro [2]” (human) and 1.11 h in “in vitro [2]” (rat).

With `Cc1ccc2nc(-c3ccccc3F)c(C(=O)N[C@H]3N=C(c4ccccc4)c4cccc(F)c4NC3=O)n2n1` [Example 19, N-[(3S)-9-fluoro-2-oxo-5-phenyl-1,3-dihydro-1,4-benzodiazepin-3-yl]-2-(2-fluorophenyl)-6-methylimidazo[1,2-b]pyridazine-3-carboxamide], in the data set with RSV A2 (setting [3]), the midpoint of the response, the EC50, lay at 31 nM. Also, the CC50 in the data set “Cell cytotoxicity (CC50)” was over 25000 nM. The half-life at 1 μM in “in vitro [1]” (dog) was over 2.33 h; in the data set “in vitro [1]” (human), over 2.33 h; in the data set “in vitro [1]” (rat), 0.477 h. In addition, the half-life at 3 μM in “in vitro [2]” (dog) was over 3.1 h; in the data set “in vitro [2]” (human), 2.02 h; in “in vitro [2]” (rat) it was 1.6 h.

For the molecule `Cc1ccn2nc(-c3ccccc3F)c(C(=O)N[C@H]3N=C(c4ccccc4)c4cccc(F)c4NC3=O)c2n1` [Example 23, N-[(3S)-9-Fluoro-2-oxo-5-phenyl-1,3-dihydro-1,4-benzodiazepin-3-yl]-2-(2-fluorophenyl)-5-methylpyrazolo[1,5-a]pyrimidine-3-carboxamide], the midpoint of the response in the data set with RSV A2 (setting [3]), the EC50, lay at 21 nM. The molecule also gave a CC50 in the data set “Cell cytotoxicity (CC50)” of over 25000 nM. Further, the half-life at 1 μM in the data set “in vitro [1]” (dog) came out at 15 h; in “in vitro [1]” (human), 6.65 h; in the data set “in vitro [1]” (rat) it was 0.555 h. Further, the half-life at 3 μM was 3.57 h in “in vitro [2]” (dog), 8.65 h in the data set “in vitro [2]” (human) and 1.18 h in the data set “in vitro [2]” (rat).

The Vd is a proportionality between amount in the body and measured concentration, not a real space. As a reminder, the clearance is a measure of how efficiently the substance is removed, as volume per time. Read a high clearance as efficient removal. By Cmax is commonly meant the peak of the concentration-time curve. The molecule `O=C(N[C@H]1N=C(c2ccccc2)c2cccc(F)c2NC1=O)c1c(-c2cncc(Cl)c2)nn2cccnc12` [Example 28, 2-(5-Chloropyridin-3-yl)-N-[(3S)-9-fluoro-2-oxo-5-phenyl-1,3-dihydro-1,4-benzodiazepin-3-yl]pyrazolo[1,5-a]pyrimidine-3-carboxamide] returned an EC50 in the data set with RSV A2 (setting [3]) of 41 nM. The molecule further gave a CC50 in “Cell cytotoxicity (CC50)” of over 25000 nM. Besides, the half-life at 1 μM in the data set “in vitro [1]” (dog) amounted to 4.28 h; in the data set “in vitro [1]” (human), 14.2 h; in the data set “in vitro [1]” (rat), 44.7 h. In “in vivo” (IV 1 mg/kg), this molecule returned a Vd of 1.8 L/kg. Besides, in “in vivo” (IV 1 mg/kg), the clearance was found to be 7.8 mL/min/kg. In “in vivo”, this molecule showed a Cmax of 785 ng/mL. In addition, the half-life was 3.1 h in the data set “in vivo” (setting [4]) and 5.4 h in the data set “in vivo” (setting [5]). Further, the AUC(0-t) in the data set “in vivo” (PO 10 mg/kg) is 11100 ng·h/mL. In addition, the “C 8 h” value in “in vivo” was 629 ng/mL. This molecule also came in with a F in the data set “in vivo” (IV 1 mg/kg, PO 10 mg/kg) of 54%. Besides, the half-life at 3 μM in the data set “in vitro [2]” (dog) is 4 h; in “in vitro [2]” (human), 3.23 h; in “in vitro [2]” (rat) it was over 3.1 h.

Regarding `CCc1ccc(-c2nn3cccnc3c2C(=O)N[C@H]2N=C(c3ccccc3)c3cccc(F)c3NC2=O)c(C)n1` [Example 57, 2-(6-Ethyl-2-methylpyridin-3-yl)-N-[(3S)-9-fluoro-2-oxo-5-phenyl-2,3-dihydro-1H-1,4-benzodiazepin-3-yl]pyrazolo[1,5-a]pyrimidine-3-carboxamide], the EC50 with RSV A2 (setting [3]) worked out at 56 nM. In “Cell cytotoxicity (CC50)”, the CC50 was over 25000 nM. Moreover, the half-life at 1 μM in “in vitro [1]” (dog) worked out at 1.38 h; in the data set “in vitro [1]” (human) it was 1.68 h; in the data set “in vitro [1]” (rat), 0.715 h. For the same molecule, in the data set “in vivo” (IV 1 mg/kg), the Vd worked out at 0.6 L/kg. This molecule also yielded a clearance in “in vivo” (IV 1 mg/kg) of 19.2 mL/min/kg. The molecule also displayed a Cmax in “in vivo” of 912 ng/mL. The figures for the half-life in “in vivo” (setting [4]) and in “in vivo” (setting [5]) were 1.4 h and 2.6 h, respectively. Moreover, in “in vivo” (PO 10 mg/kg), the AUC(0-t) was 3660 ng·h/mL. Moreover, in “in vivo”, the “C 8 h” value is recorded as 142 ng/mL. This molecule showed a F in the data set “in vivo” (IV 1 mg/kg, PO 10 mg/kg) of 48%. For the same molecule, the half-life at 3 μM in “in vitro [2]” (dog) was 43.3 h; in “in vitro [2]” (human), over 3.1 h; in the data set “in vitro [2]” (rat), 0.785 h.

In turn, `Cc1ccc2nc(-c3ccccc3)c(C(=O)N[C@H]3N=C(c4ccccc4)c4cccc(F)c4NC3=O)n2n1` [Example 93, N-[(3S)-9-Fluoro-2-oxo-5-phenyl-1,3-dihydro-1,4-benzodiazepin-3-yl]-6-methyl-2-phenylimidazo[1,2-b]pyridazine-3-carboxamide] yielded an EC50 in the data set on RSV A2 (setting [3]) of 33 nM. Further, the CC50 in the data set “Cell cytotoxicity (CC50)” is over 25000 nM. Also, the half-life at 1 μM stood at 23.7 h in the data set “in vitro [1]” (dog), 34.8 h in the data set “in vitro [1]” (human) and 0.685 h in “in vitro [1]” (rat). For the same molecule, the values for the half-life at 3 μM in “in vitro [2]” (dog), in the data set “in vitro [2]” (human) and in the data set “in vitro [2]” (rat) were 7.42 h, 4.9 h and 1.19 h, respectively.

In the data set on RSV A2 (setting [3]), `COc1ccc2nc(-c3ccncc3F)c(C(=O)N[C@H]3N=C(c4ccccc4)c4cccc(F)c4NC3=O)n2n1` [Example 119, N-[(3S)-9-fluoro-2-oxo-5-phenyl-1,3-dihydro-1,4-benzodiazepin-3-yl]-2-(3-fluoropyridin-4-yl)-6-methoxyimidazo[1,2-b]pyridazine-3-carboxamide] had an EC50 of 28 nM. In addition, the CC50 in “Cell cytotoxicity (CC50)” is over 25000 nM. In addition, the half-life at 1 μM was 7.4 h in “in vitro [1]” (dog), 2.68 h in “in vitro [1]” (human) and 0.863 h in the data set “in vitro [1]” (rat). In addition, the half-life at 3 μM in the data set “in vitro [2]” (dog) is 4.92 h; in the data set “in vitro [2]” (human), over 3.1 h; in the data set “in vitro [2]” (rat), 1.97 h.
